According to patent EP2651946B1, “2-SUBSTITUTED IMIDAZOPYRAZINES FOR USE AS MPS-1 AND TKK INHIBITORS IN THE TREATMENT OF HYPERPROLIFERATIVE DISORDERS” (Bayer Intellectual Property GmbH, priority 2010, dated 2012):

biological target: T1, human kinase Mps-1 (Homo sapiens, UniProt P33981); assay: Mps-1 kinase assay (TR-FRET); assay type: biochemical; conditions: N-terminally GST-tagged human full length recombinant Mps-1; 10 µM ATP; 1 µM peptide substrate; 15 min pre-incubation, 60 min reaction at 22°C; read-out: Mps1 IC50
T1 construct: N-terminally GST-tagged human full length recombinant Mps-1 kinase; purchased Invitrogen, Karslruhe, Germany PV4071
T1 sequence (P33981 1-857): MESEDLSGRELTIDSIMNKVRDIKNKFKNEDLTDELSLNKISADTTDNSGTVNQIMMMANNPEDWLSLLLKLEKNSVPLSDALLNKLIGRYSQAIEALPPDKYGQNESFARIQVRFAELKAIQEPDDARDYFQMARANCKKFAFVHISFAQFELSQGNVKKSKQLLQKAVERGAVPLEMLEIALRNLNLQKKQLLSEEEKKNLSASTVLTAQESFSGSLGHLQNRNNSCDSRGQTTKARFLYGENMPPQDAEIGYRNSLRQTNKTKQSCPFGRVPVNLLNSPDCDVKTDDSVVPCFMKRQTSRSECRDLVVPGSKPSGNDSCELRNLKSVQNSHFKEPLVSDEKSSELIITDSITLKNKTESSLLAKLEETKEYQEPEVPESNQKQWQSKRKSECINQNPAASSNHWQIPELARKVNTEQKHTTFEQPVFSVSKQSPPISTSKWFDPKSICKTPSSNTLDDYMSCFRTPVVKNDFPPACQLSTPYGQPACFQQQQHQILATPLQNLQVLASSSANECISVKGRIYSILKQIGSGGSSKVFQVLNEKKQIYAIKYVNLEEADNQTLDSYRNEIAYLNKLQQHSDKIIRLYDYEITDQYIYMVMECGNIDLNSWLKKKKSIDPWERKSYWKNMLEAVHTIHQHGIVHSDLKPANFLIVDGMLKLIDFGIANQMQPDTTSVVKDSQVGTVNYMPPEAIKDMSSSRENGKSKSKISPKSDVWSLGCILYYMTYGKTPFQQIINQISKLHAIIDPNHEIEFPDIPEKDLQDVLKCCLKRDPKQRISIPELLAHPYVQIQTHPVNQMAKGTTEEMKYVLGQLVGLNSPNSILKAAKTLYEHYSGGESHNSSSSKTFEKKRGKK
Procedure: The human kinase Mps-1 phosphorylates a biotinylated substrate peptide. Detection of the phosphorylated product is achieved by time-resolved fluorescence resonance energy transfer (TR-FRET) from Europium-labelled anti-phospho-Serine/Threonine antibody as donor to streptavidin labelled with cross-linked allophycocyanin (SA-XLent) as acceptor. Compounds are tested for their inhibition of the kinase activity.
N-terminally GST-tagged human full length recombinant Mps-1 kinase (purchased from Invitrogen, Karslruhe, Germany, cat. no PV4071) was used. As substrate for the kinase reaction a biotinylated peptide of the amino-acid sequence PWDPDDADITEILG (C-terminus in amide form, purchased from Biosynthan GmbH, Berlin) was used.
For the assay 50 nL of a 100-fold concentrated solution of the test compound in DMSO was pipetted into a black low volume 384well microtiter plate (Greiner Bio-One, Frickenhausen, Germany), 2 µl of a solution of Mps-1 in assay buffer [0.1 mM sodium-ortho-vanadate, 10 mM MgCl2, 2 mM DTT, 25 mM Hepes pH 7.7, 0.05% BSA, 0.001% Pluronic F-127] were added and the mixture was incubated for 15 min at 22°C to allow pre-binding of the test compounds to Mps-1 before the start of the kinase reaction. […]
The resulting mixture was incubated 1 h at 22°C to allow the binding of the phosphorylated peptide to the anti-phospho(Ser/Thr)-Europium-antibody. Subsequently the amount of phosphorylated substrate was evaluated by measurement of the resonance energy transfer from the Europium-labelled anti-phospho(Ser/Thr) antibody to the Streptavidin-XLent. Therefore, the fluorescence emissions at 620 nm and 665 nm after excitation at 350 nm was measured in a Viewlux TR-FRET reader (PerkinElmer LAS, Rodgau-Jugesheim, Germany). The "blank-corrected normalized ratio" ( a Viewlux specific readout, similar to the traditional ratio of the emissions at 665 nm and at 622 nm, in which blank and Eudonor crosstalk are subtracted from the 665 nm signal before the ratio is calculated) was taken as the measure for the amount of phosphorylated substrate. […]

Structure (SMILES)	IC50 [nM]
CC(C)CNc1nc(-c2ccccc2)cn2c(-c3ccc(C(=O)NC4CC4)cc3)c(CO)nc12 [Example 1-1, N-cyclopropyl-4-[2-(hydroxymethyl)-8-(isobutylamino)-6-phenylimidazo[1,2-a]pyrazin-3-yl]benzamide]	178
COC(=O)c1nc2c(NCC(C)C)nc(-c3ccccc3)cn2c1-c1ccc(C(=O)NC2CC2)cc1 [Example 3-1, Methyl 3-[4-(cyclopropylcarbamoyl)phenyl]-8-[(2-methylpropyl)amino]-6-phenylimidazo[1,2-a]pyrazine-2-carboxylate]	4250
CC(C)CNc1nc(-c2ccccc2)cn2c(-c3ccc(C(=O)NC4CC4)cc3)c(N)nc12 [Example 4-1, 4-[2-Amino-8-(isobutylamino)-6-phenylimidazo[1,2-a]pyrazin-3-yl]-N-cyclopropylbenzamide]	16
